Measured values from patent US4845219A, “Nitrogen- and sulfur-containing lipid compounds their production and use” (Takeda Chemical Industries, Ltd., priority 1986, dated 1989).
Where a name gives a salt, the structure may show the parent alone.

Key:
[1] = test system: human myelogenic leukaemia cells HL-60; assay: Proliferation inhibiting activity against HL-60 (Test Example 3); assay type: cell-based; conditions: HL-60 cells, read-out: Inhibitory concentration against HL-60 (IC50, μg/ml)
Procedure: Proliferation inhibiting activity (IC50) of the compound of the present invention againsts human myelogenic leukaemia cells HL-60 was measured according to the method of R. Gallo et al [Blood, vol.

Sarcoma 180 cells = assay: Life-span prolongation of Sarcoma 180-inoculated ICR mice (Test Example 1); assay type: in vivo; conditions: Sarcoma 180 1×10^5 cells/mouse i.p.; for Life-Span Prolongation Ratio (T/C, %): 0.33 mg/mouse i.p. three times (1 hour, 1 day, 2 days after inoculation), only mice of survival days less than 60 days, control = 100; for 60th day: No. of survivors/No. of tested mice: 0.33 mg/mouse i.p. three times, control 0/5
Procedure: ICR mice (a group consisting of five mice) were inoculated intraperitoneally with 1×10^5 Sarcoma 180 cells per mouse, and then given intraperitoneally 0.33 mg/mouse of the compound prepared in the present invention dissolved in physiological saline, three times in total, 1 hour, 1 day and 2 days after the inoculation. Also, the control compound [III] was given to mice under the same conditions. Shown in Table 1 are the life-span prolongation ratio against the control group not treated with drug (only related to mice of survival days less than 60 days) and the number of survived mice on the 60th day after the initiation of the test.

[2] = test system: platelet aggregation by PAF, washed PRP; assay: PAF inhibiting activity in platelet aggregation (Test Example 4); assay type: cell-based; conditions: Oryctolagus cuniculus, PAF 3×10^-7 M, rabbit washed PRP, 37° C., relative to maximum aggregation of control PRP by PAF, read-out: Inhibiting Ratio; for inhibition at 30 µM: medicine concentration 3 × 10^-5 M; for inhibition at 3 µM: medicine concentration 3 × 10^-6 M
Procedure: Using a syringe containing 3.15% citric acid (1 part per 9 parts of blood) as a blood coagulation inhibitor, blood was taken from male rabbit. The blood was then centrifuged at 1000 rpm at room temperature for 10 minutes to obtain a platelet rich plasma (PRP). This PRP was further centrifuged at 1400 rpm for 15 minutes to obtain a platelet pellet. The pellet was suspended in Ca^++ -free Tyrode containing 0.25% gelatin to obtain washed PRP. This PRP (250 μl) was stirred at 37° C. for 2 minutes, to which was then added 25 μl of a 0.2-0.5 mM Ca^++ solution. After this mixture had been stirred for 30 seconds, a medicine to be tested was added thereto. After 2 minutes stirring, 3×10^-7 M of PAF was added to the mixture. Pellet aggregation was measured by means of a platelet aggregometer (manufactured by Rika Denki, Japan). The activity of the test samples was determined in terms of an inhibiting ratio relative to the maximum transmittance (maximum aggregation ratio) of control PRP by PAF.

MM46 cells = assay: Life-span prolongation of MM46-inoculated C3H/He mice (Test Example 2); assay type: in vivo; conditions: MM46 1×10^4 cells/mouse i.p.; for Life-Span Prolongation Ratio (T/C, %): 0.25 mg/mouse i.p. for consecutive 4 days from second day after inoculation, only mice of survival days less than 60 days, control = 100; for No. of survivors/No. of tested mice: 0.25 mg/mouse i.p. for consecutive 4 days, 60th day, control 0/5
Procedure: C3H/He mice (a group consisting of five mice) were inoculated intraperitoneally with 1×10^4 MM46 cells per mouse, and each mouse was intraperitoneally given 0.25 mg of drug for consecutive 4 days, starting from the second day after the inoculation. Shown in Table 2 are the life-span prolongation ratio ragarding the died mice in the group treated with drug against those in the control group not treated with drug (only related to mice of survival days less than 60 days) and the number of survived mice on the 60th day after the inoculation of MM46.

[3] = literature; cited from earlier work
tumor cells = conditions: compound [III], literature; cited from earlier work
platelets = conditions: literature; cited from earlier work

SMILES	IC50 [1] [µg/mL]	Life-Span Prolongation Ratio (T/C, %) (Sarcoma 180 cells) [%]	60th day: No. of survivors/No. of tested mice (Sarcoma 180 cells)	inhibition at 30 µM [2] [%]	inhibition at 3 µM [2] [%]	Life-Span Prolongation Ratio (T/C, %) (MM46 cells) [%]	No. of survivors/No. of tested mice (MM46 cells)	hypotensive and other side-effect activity [3]	anti-tumor activity (tumor cells)	platelet activating / aggregating activity (platelets)
CCCCCCCCCCCCCCCCCCOCC(CC[S+]([O-])CCC[N+](C)(C)C)OC.CS(=O)(=O)[O-] (centres unmarked) [Example 37, 3-[(3-methoxy-4-octadecyloxybutyl)sulfinyl]propyltrimethylammonium mesylate]	2.5	326	0/5							
CCCCCCCCCCCCCCCCCCOCC(CCS(=O)(=O)CCC[n+]1ccsc1)OC.CS(=O)(=O)[O-] (centres unmarked) [Example 48, N-[3-((3-Methoxy-4-octadecyloxybutyl)sulfonyl)propyl]thiazolium mesylate]	2.5			100	65					
CCCCCCCCCCCCCCCCCCOCC(CCS(=O)(=O)CCC[n+]1ccccc1)OC.CS(=O)(=O)[O-] (centres unmarked) [Example 47, N-[3-((3-Methoxy-4-octadecyloxybutyl)sulfonyl)propyl]pyridinium mesylate]	1.25			100	73					
CCCCCCCCCCCCCCCCCCOCC(CS(=O)(=O)CCCCCC[N+](C)(C)C)OC.CS(=O)(=O)[O-] (centres unmarked) [Example 31, 6-[(2-methoxy-3-octadecyloxypropyl)sulfonyl]hexyltrimethylammonium mesylate]	5	273	0/5	100	100					
CCCCCCCCCCCCCCCCCCOCC(CS(=O)(=O)CCC[n+]1ccccc1)OC (centres unmarked) [Example 45, N[3-((2-Methoxy-3-octadecyloxypropyl)sulfony)propyl]pyridinium mesylate]	1.25			100	82					
CCCCCCCCCCCCCCCCCCOCC(CSCCC[N+](C)(C)C)OC.CS(=O)(=O)[O-] (centres unmarked) [Example 38, 3-[(2-methoxy-3-octadecyloxypropyl)thio]propyltrimethylammonium mesylate]	5									
CCCCCCCCCCCCCCCCCCNC(=O)OCC(CS(=O)(=O)CCC[n+]1ccccc1)OC (centres unmarked) [Example 46, N-[3-((2-Methoxy-3-octadecylcarbamoyloxypropyl)sulfonyl)propyl]-pyridinium mesylate]				100	100					
CCCCCCCCCCCCCCCCCCOCC(CCS(=O)(=O)CCC[N+](C)(C)C)OC.CS(=O)(=O)[O-] (centres unmarked) [Example 36, 3-[(3-methoxy-4-octadecyloxybutyl)sulfonyl]propyltrimethylammonium mesylate]	2.5	242	1/5							
CCCCCCCCCCCCCCCCCCOCC(CS(=O)(=O)CCC[N+](C)(C)C)OC.CS(=O)(=O)[O-] (centres unmarked) [Example 30, 3-[(2-methoxy-3-octadecyloxypropyl)sulfonyl]propyltrimethylammonium mesylate]	1.25	350	0/5			225	4/5			
CCCCCCCCCCCCCCCCCCOCC(COP(=O)([O-])OCC[N+](C)(C)C)OC (centres unmarked) [Compound [III], reference compound]		162	0/5			155	0/5	hypotensive activity and local stimulating activity	anti-tumor activity	platelet activating property
